Assay results from BigSolDB 2.1.

Settings: in water

CCCCCCCCn1cc[n+](C)c1.F[P-](F)(F)(F)(F)F
Settings	solubility (mole fraction)
285.85 K	9.4e-05
293.95 K	0.000116
299.05 K	0.000128
307.35 K	0.000154
311.35 K	0.000169
318.15 K	0.000197
324.75 K	0.000216
328.15 K	0.000239
331.15 K	0.000257
338.85 K	0.000304
343.35 K	0.000345
348.45 K	0.000383
353.75 K	0.000445
358.55 K	0.000505
364.55 K	0.000574

CCCCCCn1cc[n+](C)c1.F[P-](F)(F)(F)(F)F
Settings	solubility (mole fraction)
286.45 K	0.000326
296.65 K	0.00041
302.65 K	0.000448
307.85 K	0.000503
312.95 K	0.000545
319.35 K	0.00066
326.35 K	0.000734
331.75 K	0.000852
336.15 K	0.000919
340.25 K	0.00105
345.85 K	0.00113
350.75 K	0.00128
355.25 K	0.00144
359.95 K	0.00157
363.05 K	0.0018

CCCCn1cc[n+](C)c1.F[P-](F)(F)(F)(F)F
Settings	solubility (mole fraction)
278.75 K	0.0009
283.55 K	0.00102
289.55 K	0.00108
295.95 K	0.00126
302.25 K	0.00146
310.35 K	0.00171
314.95 K	0.00195
319.65 K	0.00218
326.65 K	0.00244
333.25 K	0.0029
338.35 K	0.00339
344.35 K	0.00371
350.85 K	0.00444
357.35 K	0.00532
362.15 K	0.00628
